Results on 4 compounds are retold here after BindingDB's records for doi:10.1074/jbc.M110.181594 (Institut Pasteur, 2010).

In this test the target is T1, 2'-deoxynucleoside 5'-phosphate N-hydrolase 1 (Rattus norvegicus, UniProt O35820).
T1 sequence (O35820 whole entry): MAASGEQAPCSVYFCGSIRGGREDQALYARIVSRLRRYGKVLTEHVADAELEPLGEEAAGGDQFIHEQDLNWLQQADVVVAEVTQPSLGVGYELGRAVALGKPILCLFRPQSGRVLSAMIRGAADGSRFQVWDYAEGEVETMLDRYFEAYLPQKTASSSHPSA
The experiment in a line: Inhibition Assay. The source says:
Rcl inhibition by nucleotides.
The Ki is a measure of affinity in units of concentration, obtained from inhibition or displacement. Low values mean tighter binding, high ones weaker binding. Turning to `Nc1ncnc2c1ncn2C1OC(COP(O)(O)=S)C(O)C1O` (centres undefined) [5'-AMPS], affinity was put at a Ki of 14 µM. Turning to `Nc1nc(=O)c2ncn(COCCOP(=O)(O)O)c2[nH]1` [Acyclovir 5'-monophosphate], the Ki was 57 µM. Against the preceding compound, the Ki is about 4.1-fold higher. The value for `O=c1[nH]c(=O)c2ncn(C3OC(COP(=O)(O)O)C(O)C3O)c2[nH]1` (centres undefined) [XMP] was 54 µM. In the case of `NC(=O)c1ncn(C2OC(COP(=O)(O)O)C(O)C2O)c1N` (centres undefined) [[5-(5-amino-4-carbamoyl-1H-imidazol-1-yl)-3,4-dihydroxyoxolan-2-yl]methyl phosphate] it was 52 µM.
